Measurements as given in patent US10421774B2 (priority 2016, dated 2019).

What was measured:
Assay in all cases: microbe, parasite or virus in culture
Assay type in all cases: cell-based, HIV-1
[1] = test system: NLRepRlucP373S recombinant wild type (WT) virus; conditions: Human immunodeficiency virus 1, MT2, read-out: WT EC50
How it was run: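 Multiple-cycle assay: luciferase-normalized NL4-3-derived NLRepRlucP373S (Renilla luciferase in place of nef) infects MT-2 cells, 10,000 cells/well, with 3-fold compound dilutions at 1% DMSO, 4-5 days, 37 °C. EC50 and EC90 fitted by median effect equation against Renilla luminescence, with residual signal under 3 μM NFV as background.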

[2] = test system: A364V site directed mutant virus; conditions: Human immunodeficiency virus 1, MT2, read-out: A364V EC50
How it was run: (§1)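 Virus yield quantified by Renilla luciferase after 4–5 day culture at 37°C of MT-2 cells (10,000/well) with 3-fold serially diluted compound at 1% final DMSO. Reporter viruses were NL4-3 P373S derivatives bearing Gag A364V or V370A/ΔT371, inputs matched on luciferase endpoint.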

[3] = test system: gag V370A/ΔT371 virus; conditions: Human immunodeficiency virus 1, MT2, read-out: V370A/ΔT371 EC50
How it was run: as §1

[4] = test system: T332S/V362I/Pr R41G virus; conditions: Human immunodeficiency virus 1, MT2, read-out: T332S/V362I/pr41G EC50
How it was run: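 Multiple-cycle susceptibility: MT-2 cells, 10,000 per well, exposed to 3-fold compound dilutions at 1% DMSO after infection with luciferase-normalized inoculum. Virus: NL4-3-derived Renilla reporter (Gag P373S) with Gag T332S/V362I and protease R41G. Readout Renilla luciferase after 4–5 days, 37 °C.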

Structure (SMILES) | EC50 [1] | EC50 [2] | EC50 [3] | EC50 [4]
C=C(C)[C@@H]1CC[C@]2(NCCN3CCS(=O)(=O)CC3)CC[C@]3(C)[C@H](CC[C@@H]4[C@@]5(C)CC=C(C6=CCC(CCOc7cc(C#N)ccn7)(C(=O)O)CC6)C(C)(C)[C@@H]5CC[C@]43C)[C@@H]12 (stereo partly drawn) [Example A24, 1-(2-((4-cyanopyridin-2-yl)oxy)ethyl)-4-((1R,3aS,5aR,5bR,7aR,11aS,11bR,13aR,13bR)-3a-((2-(1,1-dioxidothiomorpholino)ethyl)amino)-5a,5b,8,8,11a-pentamethyl-1-(prop-1-en-2-yl)-2,3,3a,4,5,5a,5b,6,7,7a,8,11,11a,11b,12,13,13a,13b-octadecahydro-1H-cyclopenta[a]chrysen-9-yl)cyclohex-3-ene-1-carboxylic acid] | 0.001 µM | 0.007 µM | 3 µM | 3 µM
C=C(C)[C@@H]1CC[C@]2(NCCN3CCS(=O)(=O)CC3)CC[C@]3(C)[C@H](CC[C@@H]4[C@@]5(C)CC=C(C6=CCC(CCOc7ncccn7)(C(=O)O)CC6)C(C)(C)[C@@H]5CC[C@]43C)[C@@H]12 (stereo partly drawn) [Example A25, 4-((1R,3aS,5aR,5bR,7aR,11aS,11bR,13aR,13bR)-3a-((2-(1,1-dioxidothiomorpholino)ethyl)amino)-5a,5b,8,8,11a-pentamethyl-1-(prop-1-en-2-yl)-2,3,3a,4,5,5a,5b,6,7,7a,8,11,11a,11b,12,13,13a,13b-octadecahydro-1H-cyclopenta[a]chrysen-9-yl)-1-(2-(pyrimidin-2-yloxy)ethyl)cyclohex-3-ene-1-carboxylic acid] | < 0.05 µM | < 0.05 µM | < 0.05 µM | < 0.05 µM
C=C(C)[C@@H]1CC[C@]2(NCCN3CCS(=O)(=O)CC3)CC[C@]3(C)[C@H](CC[C@@H]4[C@@]5(C)CC=C(C6=CCC(CCOc7nccc(C)n7)(C(=O)O)CC6)C(C)(C)[C@@H]5CC[C@]43C)[C@@H]12 (stereo partly drawn) [Example A26, 4-((1R,3aS,5aR,5bR,7aR,11aS,11bR,13aR,13bR)-3a-((2-(1,1-dioxidothiomorpholino)ethyl)amino)-5a,5b,8,8,11a-pentamethyl-1-(prop-1-en-2-yl)-2,3,3a,4,5,5a,5b,6,7,7a,8,11,11a,11b,12,13,13a,13b-octadecahydro-1H-cyclopenta[a]chrysen-9-yl)-1-(2-((4-methylpyrimidin-2-yl)oxy)ethyl)cyclohex-3-ene-1-carboxylic acid] | 0.005 µM | > 0.05 µM | > 0.05 µM | > 0.05 µM
C=C(C)[C@@H]1CC[C@]2(NCCN3CCS(=O)(=O)CC3)CC[C@]3(C)[C@H](CC[C@@H]4[C@@]5(C)CC=C(C6=CCC(CCOc7nccc(OC)n7)(C(=O)O)CC6)C(C)(C)[C@@H]5CC[C@]43C)[C@@H]12 (stereo partly drawn) [Example A27, 4-((1R,3aS,5aR,5bR,7aR,11aS,11bR,13aR,13bR)-3a-((2-(1,1-dioxidothiomorpholino)ethyl)amino)-5a,5b,8,8,11a-pentamethyl-1-(prop-1-en-2-yl)-2,3,3a,4,5,5a,5b,6,7,7a,8,11,11a,11b,12,13,13a,13b-octadecahydro-1H-cyclopenta[a]chrysen-9-yl)-1-(2-((4-methoxypyrimidin-2-yl)oxy)ethyl)cyclohex-3-ene-1-carboxylic acid] | 0.022 µM | > 0.05 µM | > 0.05 µM | 3 µM
C=C(C)[C@@H]1CC[C@]2(NCCN3CCS(=O)(=O)CC3)CC[C@]3(C)[C@H](CC[C@@H]4[C@@]5(C)CC=C(C6=CCC(CCOc7ncccc7C)(C(=O)O)CC6)C(C)(C)[C@@H]5CC[C@]43C)[C@@H]12 (stereo partly drawn) [Example A28, 4-((1R,3aS,5aR,5bR,7aR,11aS,11bR,13aR,13bR)-3a-((2-(1,1-dioxidothiomorpholino)ethyl)amino)-5a,5b,8,8,11a-pentamethyl-1-(prop-1-en-2-yl)-2,3,3a,4,5,5a,5b,6,7,7a,8,11,11a,11b,12,13,13a,13b-octadecahydro-1H-cyclopenta[a]chrysen-9-yl)-1-(2-((3-methylpyridin-2-yl)oxy)ethyl)cyclohex-3-ene-1-carboxylic acid] | < 0.05 µM | > 0.05 µM | 0.068 µM | 0.068 µM
C=C(C)[C@@H]1CC[C@]2(NCCN3CCS(=O)(=O)CC3)CC[C@]3(C)[C@H](CC[C@@H]4[C@@]5(C)CC=C(C6=CCC(CCOc7ncccc7Cl)(C(=O)O)CC6)C(C)(C)[C@@H]5CC[C@]43C)[C@@H]12 (stereo partly drawn) [Example A29, 1-(2-((3-chloropyridin-2-yl)oxy)ethyl)-4-((1R,3aS,5aR,5bR,7aR,11aS,11bR,13aR,13bR)-3a-((2-(1,1-dioxidothiomorpholino)ethyl)amino)-5a,5b,8,8,11a-pentamethyl-1-(prop-1-en-2-yl)-2,3,3a,4,5,5a,5b,6,7,7a,8,11,11a,11b,12,13,13a,13b-octadecahydro-1H-cyclopenta[a]chrysen-9-yl)cyclohex-3-ene-1-carboxylic acid] | 0.005 µM | 0.004 µM | 0.003 µM | 0.003 µM
C=C(C)[C@@H]1CC[C@]2(NCCN3CCS(=O)(=O)CC3)CC[C@]3(C)[C@H](CC[C@@H]4[C@@]5(C)CC=C(C6=CCC(CCOc7ncccc7C(F)(F)F)(C(=O)O)CC6)C(C)(C)[C@@H]5CC[C@]43C)[C@@H]12 (stereo partly drawn) [Example A30, 4-((1R,3aS,5aR,5bR,7aR,11aS,11bR,13aR,13bR)-3a-((2-(1,1-dioxidothiomorpholino)ethyl)amino)-5a,5b,8,8,11a-pentamethyl-1-(prop-1-en-2-yl)-2,3,3a,4,5,5a,5b,6,7,7a,8,11,11a,11b,12,13,13a,13b-octadecahydro-1H-cyclopenta[a]chrysen-9-yl)-1-(2-((3-(trifluoromethyl)pyridin-2-yl)oxy)ethyl)cyclohex-3-ene-1-carboxylic acid] | 0.013 µM | 3 µM | 0.223 µM | 0.223 µM
C=C(C)[C@@H]1CC[C@]2(NCCN3CCS(=O)(=O)CC3)CC[C@]3(C)[C@H](CC[C@@H]4[C@@]5(C)CC=C(C6=CCC(CCOc7cnccn7)(C(=O)O)CC6)C(C)(C)[C@@H]5CC[C@]43C)[C@@H]12 (stereo partly drawn) [Example A31, 4-((1R,3aS,5aR,5bR,7aR,11aS,11bR,13aR,13bR)-3a-((2-(1,1-dioxidothiomorpholino)ethyl)amino)-5a,5b,8,8,11a-pentamethyl-1-(prop-1-en-2-yl)-2,3,3a,4,5,5a,5b,6,7,7a,8,11,11a,11b,12,13,13a,13b-octadecahydro-1H-cyclopenta[a]chrysen-9-yl)-1-(2-(pyrazin-2-yloxy)ethyl)cyclohex-3-ene-1-carboxylic acid] | 0.003 µM | 3 µM | > 0.05 µM | > 0.05 µM
C=C(C)[C@@H]1CC[C@]2(NCCN3CCS(=O)(=O)CC3)CC[C@]3(C)[C@H](CC[C@@H]4[C@@]5(C)CC=C(C6=CCC(CCOc7cc(OC)ccn7)(C(=O)O)CC6)C(C)(C)[C@@H]5CC[C@]43C)[C@@H]12 (stereo partly drawn) [Example A32, 4-((1R,3aS,5aR,5bR,7aR,11aS,11bR,13aR,13bR)-3a-((2-(1,1-dioxidothiomorpholino)ethyl)amino)-5a,5b,8,8,11a-pentamethyl-1-(prop-1-en-2-yl)-2,3,3a,4,5,5a,5b,6,7,7a,8,11,11a,11b,12,13,13a,13b-octadecahydro-1H-cyclopenta[a]chrysen-9-yl)-1-(2-((4-methoxypyridin-2-yl)oxy)ethyl)cyclohex-3-ene-1-carboxylic acid] | 0.006 µM | > 0.05 µM | > 0.05 µM | 0.419 µM
C=C(C)[C@@H]1CC[C@]2(NCCN3CCS(=O)(=O)CC3)CC[C@]3(C)[C@H](CC[C@@H]4[C@@]5(C)CC=C(C6=CCC(CCOc7cc(Br)ccn7)(C(=O)O)CC6)C(C)(C)[C@@H]5CC[C@]43C)[C@@H]12 (stereo partly drawn) [Example A33, 1-(2-((4-bromopyridin-2-yl)oxy)ethyl)-4-((1R,3aS,5aR,5bR,7aR,11aS,11bR,13aR,13bR)-3a-((2-(1,1-dioxidothiomorpholino)ethyl)amino)-5a,5b,8,8,11a-pentamethyl-1-(prop-1-en-2-yl)-2,3,3a,4,5,5a,5b,6,7,7a,8,11,11a,11b,12,13,13a,13b-octadecahydro-1H-cyclopenta[a]chrysen-9-yl)cyclohex-3-ene-1-carboxylic acid] | 0.006 µM | 1.79 µM | > 0.05 µM | 0.419 µM
C=C(C)[C@@H]1CC[C@]2(NCCN3CCS(=O)(=O)CC3)CC[C@]3(C)[C@H](CC[C@@H]4[C@@]5(C)CC=C(C6=CCC(CCOc7cc(Cl)ccn7)(C(=O)O)CC6)C(C)(C)[C@@H]5CC[C@]43C)[C@@H]12 (stereo partly drawn) [Example A34, 1-(2-((4-chloropyridin-2-yl)oxy)ethyl)-4-((1R,3aS,5aR,5bR,7aR,11aS,11bR,13aR,13bR)-3a-((2-(1,1-dioxidothiomorpholino)ethyl)amino)-5a,5b,8,8,11a-pentamethyl-1-(prop-1-en-2-yl)-2,3,3a,4,5,5a,5b,6,7,7a,8,11,11a,11b,12,13,13a,13b-octadecahydro-1H-cyclopenta[a]chrysen-9-yl)cyclohex-3-ene-1-carboxylic acid] | 0.002 µM | 0.064 µM | > 0.05 µM | 0.096 µM
